{
  "source": "patent EP4733383A1",
  "about": "“CULTURE MEDIUM AND BLOOD CELL CLONE, AND METHOD FOR PRODUCING SAME” (Japan Institute for Health Security, priority 2023, dated 2024)",
  "type_in_all_cases": "cell-based",
  "key": {"mouse HSCs": {"system": "mouse HSCs", "experiment": "Short-term culture of HSCs (one week) with thyroid hormones and metabolites", "settings": "10 µM; for number of HSCs after culture (total cell count per colony): 300 mouse HSCs cultured one week in SF-O3, SCF 100ng/mL, TPO 100ng/mL, vs control (Ctl), Figure 1; for CD48 expression (mean fluorescence intensity of CD48 staining per colony): one week culture, CD48 is a marker for cells differentiating from HSCs, Figure 2", "protocol": "Method: A population containing mouse hematopoietic stem cells was processed using a cell sorter to enrich cells with the surface phenotype CD150^+ CD48^- EPCR^+ Lineage^- Sca-1^+c-Kit^+. These purified cells are hereinafter referred to as mouse HSCs. 300 mouse HSCs were cultured for one week at 37°C under 5% CO2 in medium containing SF-O3 (Sanko Junyaku), SCF 100ng/mL, and TPO 100ng/mL. The number of cells in each colony formed after culture was counted. All subsequent culture experiments were performed at 37°C under 5% CO2. The concentration of each thyroid hormone and its metabolites was set to 10 µM. The control group (Ctl) medium contained no added thyroid hormones or metabolites.\nResults: The groups treated with thyroid hormones and their metabolites were compared to the control group (Ctl). […] Circles represent counts per colony. Error bars indicate standard deviation. \"Ctl\" on the x-axis denotes the absence of added thyroid hormones and their metabolites. […] Circles represent measured values per colony. Error bars indicate standard deviation.\nIn Figures 1 and 2, T4 denotes thyroxine (T4). T3 denotes 3,3',5-triiodo-L-thyronine (T3). rT3 denotes 3,3',5'-triiodothyronine (rT3). 3,3'T2 denotes 3,3'-diiodo-L-thyronine (3,3'-T2). 3,5T2 denotes 3,5-diiodo-L-thyronine (3,5-T2). 3',5'T2 denotes 3',5'-diiodo-L-thyronine (3',5'-T2). T1AA denotes 3-iodothyroacetic acid (3-T1AA). T1AM denotes 3-iodothyronamine (3-T1AM). L-T0 denotes L-thyronine (T0). DL-T0 denotes the racemic form of thyronine."}, "[1]": {"system": "EPCR-positive HSCs (EPCR+HSCs)", "experiment": "Culture of HSCs in the presence of carboxylic acid derivatives of thyronine", "settings": "compared to the control group treated with DMSO alone; Figure 9", "excerpt": "T3 represents 3,3',5-triiodo-L-thyronine (T3). T3 acetic acid denotes 3,3',5-triiodo-L-thyroacetic acid (T3AA). 35T2 denotes 3,5-diiodo-L-thyronine (3,5-T2). 35T2 acetic acid denotes 3,5-diiodo-L-thyroacetic acid (3,5-T2AA). 33T2 denotes 3,3'-diiodo-L-thyronine (3,3'-T2)."}, "mouse-derived HSCs [2]": {"system": "mouse-derived HSCs", "experiment": "Expansion of mouse-derived HSCs in serum-free medium containing PVA", "settings": "serum-free medium containing PVA and T2", "protocol": "Mouse-derived HSCs were cultured in serum-free medium containing PVA and T2 instead of the serum-containing T2 medium described above. HSC expansion was also promoted in this serum-free medium. Furthermore, HSC differentiation was suppressed. At this time, the optimal concentration of T2 was 0.1 µM."}, "EPCR+HSC": {"system": "EPCR+HSC", "experiment": "4-week culture of hematopoietic cells in the presence of T2", "excerpt": "The control group received only DMSO. Differentiated blood cells are c-Kit-negative cells. MPP3, MPP2, and MPP1 are multipotent progenitor cells (MPPs) referred to as hematopoietic progenitor cells. EPCR-HSC are EPCR-negative HSCs. EPCR-HSC are slightly less functional than EPCR-positive HSCs. EPCR+HSC are EPCR-positive HSCs. EPCR+HSC represent the most undifferentiated population among HSCs."}, "mouse-derived HSCs [3]": {"system": "mouse-derived HSCs", "experiment": "Culture of HSCs in medium containing a thyroid hormone derivative", "settings": "medium containing sobetirome", "excerpt": "Additionally, HSC differentiation was suppressed."}},
  "note": "“Also recorded” adds a separate entry of the source.",
  "data": [
    {"smiles": "N[C@@H](Cc1cc(I)c(Oc2ccc(O)cc2)c(I)c1)C(=O)O", "note": "[3,5-T2, 3,5-Diiodo-L-thyronine]", "values": [
      {"measurement": "number of HSCs after culture (total cell count per colony)", "setting": "mouse HSCs", "result": "high"},
      {"measurement": "CD48 expression (mean fluorescence intensity of CD48 staining per colony)", "setting": "mouse HSCs", "result": "maintained at low levels"},
      {"measurement": "proportion of EPCR+HSCs after culturing HSCs", "setting": "[1]", "result": "increased"}
    ]},
    {"smiles": "N[C@@H](Cc1ccc(Oc2ccc(O)c(I)c2)c(I)c1)C(=O)O", "note": "[T2, 3,3'-Diiodo-L-thyronine]", "values": [
      {"measurement": "HSC differentiation", "setting": "mouse-derived HSCs [2]", "result": "suppressed"},
      {"measurement": "HSC expansion", "setting": "mouse-derived HSCs [2]", "result": "promoted"},
      {"measurement": "optimal concentration of T2", "setting": "mouse-derived HSCs [2]", "result": 0.1, "unit": "µM"},
      {"measurement": "expansion factor of EPCR+HSC", "setting": "EPCR+HSC; EPCR+HSC cultured 4 weeks in the presence of T2", "result": 204, "unit": "fold"},
      {"measurement": "EPCR+HSC expansion", "setting": "EPCR+HSC; EPCR+HSC cultured 4 weeks in the presence of T2, vs control group (DMSO), Figure 10", "result": "expanded more than in the control group"},
      {"measurement": "expansion of other cells derived from EPCR+HSC (EPCR-HSC, MPP3, MPP2, MPP1, differentiated blood cells)", "setting": "EPCR+HSC; EPCR+HSC cultured 4 weeks in the presence of T2, Figure 10", "result": "expanded"}
    ]},
    {"smiles": "O=C(O)Cc1cc(I)c(Oc2ccc(O)cc2)c(I)c1", "note": "[35T2 acetic acid, 3,5-Diiodo-L-thyroacetic acid]", "values": [
      {"measurement": "proportion of EPCR+HSCs after culturing HSCs", "setting": "[1]", "result": "increased"}
    ]},
    {"smiles": "N[C@@H](Cc1ccc(Oc2ccc(O)c(I)c2)c(I)c1)C(=O)O", "note": "[3,3'-T2, 3,3'-Diiodo-L-thyronine]", "values": [
      {"measurement": "number of HSCs after culture (total cell count per colony)", "setting": "mouse HSCs", "result": "high"},
      {"measurement": "CD48 expression (mean fluorescence intensity of CD48 staining per colony)", "setting": "mouse HSCs", "result": "maintained at low levels; also recorded: most strongly suppressed CD48 expression"},
      {"measurement": "proportion of EPCR+HSCs after culturing HSCs", "setting": "[1]", "result": "increased"}
    ]},
    {"smiles": "Cc1cc(OCC(=O)O)cc(C)c1Cc1ccc(O)c(C(C)C)c1", "note": "[sobetirome, Sobetirome]", "values": [
      {"measurement": "HSC differentiation", "setting": "mouse-derived HSCs [3]", "result": "suppressed"},
      {"measurement": "HSC expansion", "setting": "mouse-derived HSCs [3]", "result": "promoted HSC expansion"}
    ]},
    {"smiles": "O=C(O)Cc1ccc(Oc2ccc(O)cc2)c(I)c1", "note": "[T1AA, 3-Iodo-L-thyroacetic acid]", "values": [
      {"measurement": "number of HSCs after culture (total cell count per colony)", "setting": "mouse HSCs", "result": "tendency to promote cell proliferation"},
      {"measurement": "CD48 expression (mean fluorescence intensity of CD48 staining per colony)", "setting": "mouse HSCs", "result": "tendency to reduce CD48 expression"}
    ]},
    {"smiles": "N[C@@H](Cc1cc(I)c(Oc2ccc(O)c(I)c2)c(I)c1)C(=O)O", "note": "[T3, 3,3',5-triiodo-L-thyronine]", "values": [
      {"measurement": "number of HSCs after culture (total cell count per colony)", "setting": "mouse HSCs", "result": "high"},
      {"measurement": "CD48 expression (mean fluorescence intensity of CD48 staining per colony)", "setting": "mouse HSCs", "result": "maintained at low levels"},
      {"measurement": "proportion of EPCR+HSCs after culturing HSCs", "setting": "[1]", "result": "increased"}
    ]},
    {"smiles": "N[C@@H](Cc1cc(I)c(Oc2cc(I)c(O)c(I)c2)c(I)c1)C(=O)O", "note": "[T4, thyroxine]", "values": [
      {"measurement": "number of HSCs after culture (total cell count per colony)", "setting": "mouse HSCs", "result": "high"},
      {"measurement": "CD48 expression (mean fluorescence intensity of CD48 staining per colony)", "setting": "mouse HSCs", "result": "maintained at low levels"}
    ]},
    {"smiles": "N[C@@H](Cc1ccc(Oc2cc(I)c(O)c(I)c2)c(I)c1)C(=O)O", "note": "[rT3, 3,3',5'-Triiodothyronine]", "values": [
      {"measurement": "number of HSCs after culture (total cell count per colony)", "setting": "mouse HSCs", "result": "high"},
      {"measurement": "CD48 expression (mean fluorescence intensity of CD48 staining per colony)", "setting": "mouse HSCs", "result": "maintained at low levels"}
    ]}
  ]
}
